# According to patent US20260015350A1, “AZAQUINAZOLINE PAN-KRAS INHIBITORS” (Mirati Therapeutics, Inc., priority 2022, published 2026):
# Assays:
# [1] = target: T1, KRas^G12D (Homo sapiens, UniProt P01116, G12D); assay: KRas binding assay (TR-FRET tracer displacement), KRas G12D
# T1 construct: Biotinylated KRas (corresponding to amino acids 1-169, produced at Accelegan Inc.); biotin (biotinylated); purchased Accelegan Inc
# [2] = target: T2, KRas^G12R (Homo sapiens, UniProt P01116, G12R); assay: KRas binding assay (TR-FRET tracer displacement), KRas G12R
# T2 construct: Biotinylated KRas (corresponding to amino acids 1-169, produced at Accelegan Inc.); biotin (biotinylated); purchased Accelegan Inc
# [3] = target: T3, KRas^G12V (Homo sapiens, UniProt P01116, G12V); assay: KRas binding assay (TR-FRET tracer displacement), KRas G12V
# T3 construct: Biotinylated KRas (corresponding to amino acids 1-169, produced at Accelegan Inc.); biotin (biotinylated); purchased Accelegan Inc
# [4] = test system: KRas-mediated phosphorylation of ERK in MKN1 cells; assay: Inhibition of KRas-mediated phosphorylation of ERK (Cisbio HTRF pERK), MKN1 cells; format: cell-based; settings: Homo sapiens, MKN-1
# Protocol: (§1) Inhibition of KRas Phosphorylation of ERK (HTRF) by Exemplary Compounds of Formula (I)
# (§2) Cisbio HTRF Advanced PERK Assay Catalog #64AERPEH
# (§3) Day 1: Seed 6,000 cells/well-25 μl/well in 384-well white solid bottom plate; RPM1_10% FBS. Incubate overnight at 37° C./5% CO2.
# (§4) Incubate for 4 hours at room temperature covered.
# (§5) Read HTRF using ClarioStar
# [5] = test system: KRas-mediated phosphorylation of ERK in PSN1 cells; assay: Inhibition of KRas-mediated phosphorylation of ERK (Cisbio HTRF pERK), PSN1 cells; format: cell-based; settings: Homo sapiens
# Protocol: as §1, §2, §3, §4, §5
# [6] = test system: KRas-mediated phosphorylation of ERK in AsPC-1 cells; assay: Inhibition of KRas-mediated phosphorylation of ERK (Cisbio HTRF pERK), AsPC-1 cells; format: cell-based; settings: Homo sapiens, ASPC1, AsPC-1 cells; HTRF pERK
# In short: (§6)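 Cells were seeded at 6,000 per well and treated for 3 hrs with compound in a 10-dose, 3-fold series from 10 uM (0.8% final DMSO), with 0.2 uM Trametinib as Min control. Lysates made at 4° C over 40 mins were incubated 2 hrs at room temperature with d2- and Cryptate-labelled antibodies, then read by HTRF.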
# [7] = test system: KRas-mediated phosphorylation of ERK in H727 cells; assay: Inhibition of KRas-mediated phosphorylation of ERK (Cisbio HTRF pERK), H727 cells; format: cell-based; settings: Homo sapiens, NCI-H727, H727 cells; HTRF pERK
# In short: as §6
# [8] = test system: KRas-mediated phosphorylation of ERK in A549 cells; assay: Inhibition of KRas-mediated phosphorylation of ERK (Cisbio HTRF pERK), A549 cells; format: cell-based; settings: Homo sapiens, HTRF pERK
# In short: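 A cell-based HTRF pERK assay: ten-point, threefold titrations beginning at 10 uM were applied for 3 hrs, with 0.2 uM Trametinib wells as the minimum control. Cells were lysed cold, and lysate was incubated with the antibody pair for 2 hrs before reading.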
# T3 sequence (P01116 1-169 isoform P01116-2 G12V): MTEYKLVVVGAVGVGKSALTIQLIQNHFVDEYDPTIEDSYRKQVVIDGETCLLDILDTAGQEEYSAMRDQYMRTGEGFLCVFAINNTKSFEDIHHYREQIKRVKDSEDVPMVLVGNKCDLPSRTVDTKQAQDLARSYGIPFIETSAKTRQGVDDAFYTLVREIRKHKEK
# T2 sequence (P01116 1-169 isoform P01116-2 G12R): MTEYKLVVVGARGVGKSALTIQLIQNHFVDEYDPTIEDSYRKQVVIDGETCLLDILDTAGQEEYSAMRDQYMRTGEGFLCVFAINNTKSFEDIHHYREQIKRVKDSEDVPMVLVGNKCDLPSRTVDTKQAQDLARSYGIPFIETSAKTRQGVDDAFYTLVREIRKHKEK
# T1 sequence (P01116 1-169 isoform P01116-2 G12D): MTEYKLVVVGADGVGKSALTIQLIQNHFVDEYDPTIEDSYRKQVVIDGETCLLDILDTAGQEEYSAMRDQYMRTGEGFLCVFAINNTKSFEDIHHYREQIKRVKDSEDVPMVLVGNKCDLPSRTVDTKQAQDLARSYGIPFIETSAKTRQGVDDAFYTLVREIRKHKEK
SMILES,IC50 [1] [nM],IC50 [2] [nM],IC50 [3] [nM],IC50 [4] [nM],IC50 [5] [nM],IC50 [6] [nM],IC50 [7] [nM],IC50 [8] [nM]
"CCc1c(F)ccc2cc(O)cc(-c3ncc4c(N5CCCC(N6CCCCS6(=O)=O)C5)nc(OC[C@@]56CCCN5C[C@H](F)C6)nc4c3F)c12 (stereo partly drawn) [Example 664, 2-(1-(7-(8-ethyl-7-fluoro-3-hydroxynaphthalen-1-yl)-8-fluoro-2-(((2R,7aS)-2-fluorohexahydro-1H-pyrrolizin-7a-yl)methoxy)pyrido[4,3-d]pyrimidin-4-yl)piperidin-3-yl)-1,2-thiazinane 1,1-dioxide]",7,2,6,5,> 10000,567,351,152
"CCc1c(F)ccc2cc(O)cc(-c3ncc4c(NCc5cc(C(=O)N(C)C)nn5C5COC5)nc(OC[C@@]56CCCN5C[C@H](F)C6)nc4c3F)c12 [Example 810, 5-(((7-(8-ethyl-7-fluoro-3-hydroxynaphthalen-1-yl)-8-fluoro-2-(((2R,7aS)-2-fluorotetrahydro-1H-pyrrolizin-7a(5H)-yl)methoxy)pyrido[4,3-d]pyrimidin-4-yl)amino)methyl)-N,N-dimethyl-1-(oxetan-3-yl)-1H-pyrazole-3-carboxamide]",13,4,4,110,> 10000,> 10000,4980,–
"CCc1c(F)ccc2cc(O)c(F)c(-c3ncc4c(N5C[C@@H]6C[C@H](C5)[C@H](O)C6)nc(OC[C@@]56CCCN5C[C@H](F)C6)nc4c3F)c12 [Example 811, (1R,5R,6R)-3-(7-(8-ethyl-2,7-difluoro-3-hydroxynaphthalen-1-yl)-8-fluoro-2-(((2R,7aS)-2-fluorotetrahydro-1H-pyrrolizin-7a(5H)-yl)methoxy)pyrido[4,3-d]pyrimidin-4-yl)-3-azabicyclo[3.2.1]octan-6-ol]",8,4,2,37,5670,149,68,–
"CCc1c(F)ccc2cc(O)cc(-c3ncc4c(N5C[C@H]6CC[C@@H](C5)N6C5CC(F)(F)C5)nc(OC[C@@]56CCCN5C[C@H](F)C6)nc4c3F)c12 [Example 831, 4-(4-((1R,5S)-8-(3,3-difluorocyclobutyl)-3,8-diazabicyclo[3.2.1]octan-3-yl)-8-fluoro-2-(((2R,7aS)-2-fluorotetrahydro-1H-pyrrolizin-7a(5H)-yl)methoxy)pyrido[4,3-d]pyrimidin-7-yl)-5-ethyl-6-fluoronaphthalen-2-ol]",42,38,36,13,> 10000,331,1080,–
"CCc1c(F)ccc2cc(O)cc(-c3ncc4c(N5CCCC6(CCS6)C5)nc(OC[C@@]56CCCN5C[C@H](F)C6)nc4c3F)c12 (stereo partly drawn) [Example 838, 5-ethyl-6-fluoro-4-(8-fluoro-2-(((2R,7aS)-2-fluorotetrahydro-1H-pyrrolizin-7a(5H)-yl)methoxy)-4-(1-thia-6-azaspiro[3.5]nonan-6-yl)pyrido[4,3-d]pyrimidin-7-yl)naphthalen-2-ol]",16,15,10,222,> 10000,508,1030,–
"CCc1c(F)ccc2cc(O)cc(-c3ncc4c(N5CC6CCC(CC6)C5)nc(OC[C@@]56CCCN5C[C@H](F)C6)nc4c3F)c12 [Example 844, 4-(4-(3-azabicyclo[3.2.2]nonan-3-yl)-8-fluoro-2-(((2R,7aS)-2-fluorotetrahydro-1H-pyrrolizin-7a(5H)-yl)methoxy)pyrido[4,3-d]pyrimidin-7-yl)-5-ethyl-6-fluoronaphthalen-2-ol]",103,46,35,198,> 10000,3330,2900,–

# These reach a lower IC50 [1]. Values come first.
IC50 [1] [nM],IC50 [2] [nM],IC50 [3] [nM],IC50 [4] [nM],IC50 [5] [nM],IC50 [6] [nM],IC50 [7] [nM],IC50 [8] [nM],SMILES
< 2,2,< 2,> 10000,> 10000,2730,5730,–,"CN(C)C(=O)c1cc2n(n1)CCCN(c1nc(OCC34CCCN3CCC4)nc3c(F)c(-c4cc(O)cc(Cl)c4C4CC4)ncc13)C2 [Example 744, 5-(7-(3-chloro-2-cyclopropyl-5-hydroxyphenyl)-8-fluoro-2-((hexahydro-1H-pyrrolizin-7a-yl)methoxy)pyrido[4,3-d]pyrimidin-4-yl)-N,N-dimethyl-5,6,7,8-tetrahydro-4H-pyrazolo[1,5-a][1,4]diazepine-2-carboxamide]"
< 2,< 2,3,3,125,32,14,–,"O=S1(=O)CCC2(CCCN(c3nc(OC[C@@]45CCCN4C[C@H](F)C5)nc4c(F)c(-c5cc(O)cc6ccc(F)c(Cl)c56)ncc34)C2)N1 (stereo partly drawn) [Example 807, 7-(7-(8-chloro-7-fluoro-3-hydroxynaphthalen-1-yl)-8-fluoro-2-(((2R,7aS)-2-fluorotetrahydro-1H-pyrrolizin-7a(5H)-yl)methoxy)pyrido[4,3-d]pyrimidin-4-yl)-2-thia-1,7-diazaspiro[4.5]decane 2,2-dioxide]"
< 2,< 2,< 2,653,> 10000,3070,1690,–,"Cc1cccc2cc3[nH]ncc3c(-c3ncc4c(N5CCCC6(CNS(=O)(=O)N6)C5)nc(OCC56CCCN5CCC6)nc4c3F)c12 (centres unmarked) [Example 808, 7-(8-fluoro-7-(5-methyl-1H-benzo[f]indazol-4-yl)-2-((tetrahydro-1H-pyrrolizin-7a(5H)-yl)methoxy)pyrido[4,3-d]pyrimidin-4-yl)-2-thia-1,3,7-triazaspiro[4.5]decane 2,2-dioxide]"
< 2,3,< 2,176,> 10000,485,402,–,"C#Cc1c(F)ccc2cc(O)cc(-c3ncc4c(N5CCC[C@@](C)(O)C5)nc(OC[C@]56CCCN5[C@H](CO)CC6)nc4c3F)c12 [Example 814, (R)-1-(7-(8-ethynyl-7-fluoro-3-hydroxynaphthalen-1-yl)-8-fluoro-2-(((3S,7aR)-3-(hydroxymethyl)tetrahydro-1H-pyrrolizin-7a(5H)-yl)methoxy)pyrido[4,3-d]pyrimidin-4-yl)-3-methylpiperidin-3-ol]"
2,4,< 2,22,2290,32,28,–,"CCc1c(F)ccc2cc(O)cc(-c3ncc4c(N5CCC[C@@](C)(O)C5)nc(OC[C@@]56CCCN5C[C@H](F)CC6)nc4c3F)c12 [Example 815, (R)-1-(7-(8-ethyl-7-fluoro-3-hydroxynaphthalen-1-yl)-8-fluoro-2-(((6R,8aS)-6-fluorohexahydroindolizin-8a (1H)-yl)methoxy)pyrido[4,3-d]pyrimidin-4-yl)-3-methylpiperidin-3-ol]"
5,2,< 2,50,5110,188,43,–,"Oc1cc(-c2ncc3c(N4C[C@@H]5C[C@H](C4)[C@H](O)C5)nc(OC[C@@]45CCCN4C[C@H](F)C5)nc3c2F)c2cc(C(F)(F)F)ccc2c1 [Example 817, (1R,5R,6R)-3-(8-fluoro-2-(((2R,7aS)-2-fluorotetrahydro-1H-pyrrolizin-7a(5H)-yl)methoxy)-7-(3-hydroxy-7-(trifluoromethyl)naphthalen-1-yl)pyrido[4,3-d]pyrimidin-4-yl)-3-azabicyclo[3.2.1]octan-6-ol]"
5,12,5,188,7860,272,267,–,"CCc1c(F)ccc2cc(O)cc(-c3ncc4c(N5CCCCC(n6ccnn6)C5)nc(OC[C@@]56CCCN5C[C@H](F)C6)nc4c3F)c12 (stereo partly drawn) [Example 830, 4-(4-(3-(1H-1,2,3-triazol-1-yl)azepan-1-yl)-8-fluoro-2-(((2R,7aS)-2-fluorotetrahydro-1H-pyrrolizin-7a(5H)-yl)methoxy)pyrido[4,3-d]pyrimidin-7-yl)-5-ethyl-6-fluoronaphthalen-2-ol]"
